Test: mn = molality of the nth substance listed, in mol/kg
Conditions: 101.3 kPa, Liquid; for viscosity: Capillary tube (Ostwald / Ubbelohde) method; for speed of sound: Frequency=4 MHz, Linear variable-path acoustic interferometer; for mass density: Vibrating tube method

Cc1ncc(C[n+]2csc(CCO)c2C)c(N)n1.Cl.[Cl-] [thiamine hydrochloride] + O
Conditions	mass density [kg/m3]	speed of sound [m/s]	viscosity [mPa·s]
293.15 K, m1 = 0.0497	1003.19	1490.4	1.048
293.15 K, m1 = 0.0502	1003.19	–	1.048
293.15 K, m1 = 0.0503	–	1490.4	–
293.15 K, m1 = 0.1003	1008.06	1498.5	1.071
293.15 K, m1 = 0.1008	1008.06	1498.5	1.071
293.15 K, m1 = 0.1498	1013.01	1507.2	1.101
293.15 K, m1 = 0.1505	1013.01	1507.2	1.101
298.15 K, m1 = 0.0497	1001.99	1504.1	0.9193
298.15 K, m1 = 0.0502	1001.99	–	0.9193
298.15 K, m1 = 0.0503	–	1504.1	–
298.15 K, m1 = 0.1003	1006.87	1512.6	0.954
298.15 K, m1 = 0.1008	1006.87	1512.6	0.954
298.15 K, m1 = 0.1498	1011.77	1520.8	0.9913
298.15 K, m1 = 0.1505	1011.77	1520.8	0.9913
303.15 K, m1 = 0.0497	1000.56	1516.7	0.8251
303.15 K, m1 = 0.0502	1000.56	–	0.8251
303.15 K, m1 = 0.0503	–	1516.7	–
303.15 K, m1 = 0.1003	1005.44	1524.1	0.8569
303.15 K, m1 = 0.1008	1005.44	1524.1	0.8569
303.15 K, m1 = 0.1498	1010.29	1532.7	0.8892
303.15 K, m1 = 0.1505	1010.29	1532.7	0.8892
308.15 K, m1 = 0.0497	998.93	1526.9	0.7565
308.15 K, m1 = 0.0502	998.93	–	0.7565
308.15 K, m1 = 0.0503	–	1526.9	–
308.15 K, m1 = 0.1003	1003.79	1533.7	0.7753
308.15 K, m1 = 0.1008	1003.79	1533.7	0.7753
308.15 K, m1 = 0.1498	1008.62	1542.5	0.8015
308.15 K, m1 = 0.1505	1008.62	1542.5	0.8015
313.15 K, m1 = 0.0497	997.193	1535.5	0.6772
313.15 K, m1 = 0.0502	997.193	–	0.6772
313.15 K, m1 = 0.0503	–	1535.5	–
313.15 K, m1 = 0.1003	1002	1542.8	0.7057
313.15 K, m1 = 0.1008	1002	1542.8	0.7057
313.15 K, m1 = 0.1498	1006.76	1551.1	0.7388
313.15 K, m1 = 0.1505	1006.76	1551.1	0.7388

O [water] + Cc1ncc(C[n+]2csc(CCO)c2C)c(N)n1.Cl.[Cl-]
m2 = 0
Conditions	mass density [kg/m3]	speed of sound [m/s]	viscosity [mPa·s]
293.15 K	–	–	1.002
298.15 K	–	–	0.8906
303.15 K	–	–	0.7975
308.15 K	994.059	1519.3	0.7193
313.15 K	–	1528.7	0.6531

O [water] + N=C(N)NCCC[C@H](N)C(=O)O
m2 = 0
Conditions	mass density [kg/m3]	speed of sound [m/s]	viscosity [mPa·s]
293.15 K	–	–	1.002
298.15 K	–	–	0.8906
303.15 K	–	–	0.7975
308.15 K	994.059	1519.3	0.7193
313.15 K	–	1528.7	0.6531

O [water] + N[C@@H](CO)C(=O)O
m2 = 0
Conditions	mass density [kg/m3]	speed of sound [m/s]	viscosity [mPa·s]
293.15 K	–	–	1.002
298.15 K	–	–	0.8906
303.15 K	–	–	0.7975
308.15 K	994.059	1519.3	0.7193
313.15 K	–	1528.7	0.6531

— the NIST ThermoML archive (doi:10.1016/j.jct.2019.03.039)
